Laboratory results taken from patent US20250325525A1, “GLP1 TABLET COMPOSITIONS” (Eli Lilly and Company, priority 2022, published 2025).

Test: Twenty-four hour aqueous solubility at 25° C.
Format: physicochemical
Conditions: thermodynamic from solid, crystalline
Procedure: Twenty-four Hour Aqueous Solubility of Crystalline GLP1RA-Ca at 25° C.
Twenty-Four Hour Aqueous Solubility of Preparation 3 SDD at 25° C.

**Q.** With `Cc1cc(-n2nc3c(c2-n2ccn(-c4ccc5c(cnn5C)c4F)c2=O)[C@H](C)N(C(=O)c2cc4cc([C@H]5CCOC(C)(C)C5)ccc4n2[C@@]2(c4noc(=O)[nH]4)C[C@@H]2C)CC3)cc(C)c1F` [GLP1RA-Ca, 3-[(1S,2S)-1-[5-[(4S)-2,2-dimethyloxan-4-yl]-2-[(4S)-2-(4-fluoro-3,5-dimethylphenyl)-3-[3-(4-fluoro-1-methylindazol-5-yl)-2-oxoimidazol-1-yl]-4-methyl-6,7-dihydro-4H-pyrazolo[4,3-c]pyridine-5-carbonyl]indol-1-yl]-2-methylcyclopropyl]-4H-1,2,4-oxadiazol-5-one, 0.5 Ca hydrate] as the molecule, how does the solubility at 24 h (aqueous buffer, pH 4.5 acetate buffer (USP), media pH 4.5) read?
**A.** < 1 µg/mL

**Q.** What about the solubility at 24 h (aqueous buffer, pH 6.0 phosphate buffer (USP), media pH 5.99) of the same molecule?
**A.** < 1 µg/mL

**Q.** What about the solubility at 24 h (aqueous buffer, pH 7.5 phosphate buffer (USP), media pH 7.44) of the same molecule?
**A.** 3 µg/mL

**Q.** What about the solubility at 24 h (fassif, Fasted state simulated intestinal fluid, media pH 6.49) of the same molecule?
**A.** 2 µg/mL

**Q.** What about the solubility at 24 h (fessif, Fed state simulated intestinal fluid, media pH 4.93) of the same molecule?
**A.** 13 µg/mL

**Q.** And the solubility at 24 h (simulated gastric fluid, 0.01N HCl, media pH 1.98)?
**A.** < 1 µg/mL

**Q.** And the solubility at 24 h (simulated gastric fluid, 0.1N HCl, media pH 1.01)?
**A.** < 1 µg/mL

**Q.** And the solubility at 24 h (Simulated gastric fluid, media pH 1.97)?
**A.** 3 µg/mL

**Q.** And the solubility at 24 h (Water, media pH not measured)?
**A.** 28 µg/mL
